PubChem BioAssay (NCI)
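Tested at 5 concentrations; 48 h exposure; 96-well plates; endpoints linearly interpolated, else capped at highest concentration. GI50 is the concentration that inhibits growth by half. TGI: concentration producing complete growth inhibition.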

How the values were obtained:
Assay in all cases: NCI-60 cell line screen, 48 h
[1] = tested on: NCI-H226 lung
[2] = tested on: A498 renal
[3] = tested on: HS 578T breast
[4] = tested on: A549 NSCLC
[5] = tested on: BT-549 breast
[6] = tested on: SF-539 CNS
[7] = tested on: MOLT-4 leukemia
[8] = tested on: EKVX NSCLC
[9] = tested on: RPMI-8226 leukemia
[10] = tested on: TK-10 renal
[11] = tested on: U251 CNS
[12] = tested on: HOP-92 NSCLC
[13] = tested on: HCT-15 colon
[14] = tested on: HOP-62 NSCLC
[15] = tested on: SF-295 CNS
[16] = tested on: SF-268 CNS
[17] = tested on: ACHN renal
[18] = tested on: RXF 393 renal
[19] = tested on: NCI-H522 lung
[20] = tested on: LOX IMVI melanoma
[21] = tested on: CCRF-CEM leukemia
[22] = tested on: HL-60(TB) leukemia
[23] = tested on: SNB-75 CNS
[24] = tested on: SK-MEL-5 melanoma
[25] = tested on: UACC-62 melanoma
[26] = tested on: MDA-MB-435
[27] = tested on: SNB-19 CNS
[28] = tested on: SN12C renal
[29] = tested on: COLO 205 colon
[30] = tested on: OVCAR-8 ovarian
[31] = tested on: UACC-257 melanoma
[32] = tested on: 786-0 renal
[33] = tested on: SW-620 colon
[34] = tested on: MDA-MB-231 breast
[35] = tested on: UO-31 renal
[36] = tested on: OVCAR-3 ovarian
[37] = tested on: KM12 colon
[38] = tested on: SK-MEL-28 melanoma
[39] = tested on: PC-3 prostate
[40] = tested on: OVCAR-4 ovarian
[41] = tested on: NCI/ADR-RES ovarian
[42] = tested on: MCF7 breast
[43] = tested on: M14 melanoma
[44] = tested on: CAKI-1 renal
[45] = tested on: T-47D breast
[46] = tested on: IGROV1 ovarian
[47] = tested on: SR leukemia
[48] = tested on: DU-145 prostate
[49] = tested on: K-562 leukemia
[50] = tested on: OVCAR-5 ovarian
[51] = tested on: SK-MEL-2 melanoma
[52] = tested on: HCT-116 colon
[53] = tested on: NCI-H23 lung
[54] = tested on: SK-OV-3 ovarian
[55] = tested on: NCI-H460 lung
[56] = tested on: HCC-2998 colon
[57] = tested on: HT29 colon

COc1ccc(CCn2c3c(c4c(O)cccc42)C(=O)c2ccccc2-3)cc1OC
GI50 [1]: > 56.1 µM
TGI [1]: > 100 µM
GI50 [2]: > 100 µM
TGI [2]: > 100 µM
GI50 [3]: 46.2 µM
TGI [3]: > 85.4 µM
GI50 [4]: 32.9 µM
TGI [4]: > 100 µM
GI50 [5]: 6.57 µM
TGI [5]: > 47.7 µM
GI50 [6]: 6.65 µM
TGI [6]: > 51.2 µM
GI50 [7]: 19.9 µM
TGI [7]: 63.9 µM
GI50 [8]: 29.3 µM
TGI [8]: > 94.7 µM
GI50 [9]: 21.2 µM
TGI [9]: > 70.8 µM
GI50 [10]: 28.6 µM
TGI [10]: > 74.1 µM
GI50 [11]: 41.8 µM
TGI [11]: > 100 µM
GI50 [12]: > 72.5 µM
TGI [12]: > 100 µM
GI50 [13]: 22.5 µM
TGI [13]: > 73.4 µM
GI50 [14]: > 35.6 µM
TGI [14]: > 59.3 µM
GI50 [15]: 30.8 µM
TGI [15]: > 81.6 µM
GI50 [16]: 38.9 µM
TGI [16]: > 100 µM
GI50 [17]: 13.6 µM
TGI [17]: > 52.7 µM
GI50 [18]: > 79 µM
TGI [18]: > 100 µM
GI50 [19]: 20.8 µM
TGI [19]: > 60.4 µM
GI50 [20]: > 45 µM
TGI [20]: > 73.3 µM
GI50 [21]: 20 µM
TGI [21]: > 66.8 µM
GI50 [22]: 20.3 µM
TGI [22]: 53 µM
GI50 [23]: > 100 µM
TGI [23]: > 100 µM
GI50 [24]: 18.8 µM
TGI [24]: > 60.3 µM
GI50 [25]: 21.5 µM
TGI [25]: > 72.9 µM
GI50 [26]: 20 µM
TGI [26]: > 83.7 µM
GI50 [27]: > 100 µM
TGI [27]: > 100 µM
GI50 [28]: 50.7 µM
TGI [28]: > 100 µM
GI50 [29]: 29.1 µM
TGI [29]: > 87.3 µM
GI50 [30]: 34.3 µM
TGI [30]: > 83.6 µM
GI50 [31]: 52.6 µM
TGI [31]: 98.6 µM
GI50 [32]: 36.8 µM
TGI [32]: > 69.4 µM
GI50 [33]: 31.1 µM
TGI [33]: > 75.6 µM
GI50 [34]: 41.5 µM
TGI [34]: > 90.9 µM
GI50 [35]: 37.5 µM
TGI [35]: > 100 µM
GI50 [36]: 54.1 µM
TGI [36]: > 100 µM
GI50 [37]: 22.1 µM
TGI [37]: > 81.9 µM
GI50 [38]: > 80.2 µM
TGI [38]: > 100 µM
GI50 [39]: 37.4 µM
TGI [39]: > 100 µM
GI50 [40]: 71.8 µM
TGI [40]: > 100 µM
GI50 [41]: 21 µM
TGI [41]: > 69.2 µM
GI50 [42]: 34.8 µM
TGI [42]: > 100 µM
GI50 [43]: 43.3 µM
TGI [43]: > 84.4 µM
GI50 [44]: 36.3 µM
TGI [44]: > 96.5 µM
GI50 [45]: 67.9 µM
TGI [45]: > 100 µM
GI50 [46]: 0.818 µM
TGI [46]: > 47.4 µM
GI50 [47]: 12.9 µM
TGI [47]: 34 µM
GI50 [48]: > 60.6 µM
TGI [48]: > 100 µM
GI50 [49]: 12.5 µM
TGI [49]: 69.7 µM
GI50 [50]: > 42 µM
TGI [50]: > 84.2 µM
GI50 [51]: 24.1 µM
TGI [51]: > 95.3 µM
GI50 [52]: 26.1 µM
TGI [52]: > 57.5 µM
GI50 [53]: 25.3 µM
TGI [53]: > 77.7 µM
GI50 [54]: > 100 µM
TGI [54]: > 100 µM
GI50 [55]: 31.2 µM
TGI [55]: > 96.5 µM
GI50 [56]: 19.5 µM
TGI [56]: 43.4 µM
GI50 [57]: 43.5 µM
TGI [57]: > 100 µM
